# Results from ChEMBL document CHEMBL5678818, “Discovery of potent SOS1 inhibitors that block RAS activation via disruption of the RAS-SOS1 interaction” (Proc Natl Acad Sci U S A, 2019).
# Experiments:
# [1] = biological target: T1, Ephrin type-A receptor 1 (Homo sapiens) (UniProt P21709); assay: Inhibition of EPHA1 (unknown origin) assessed as residual activity at 1000 nM by KINOMEscan analysis relative to control
# T1 sequence (whole entry): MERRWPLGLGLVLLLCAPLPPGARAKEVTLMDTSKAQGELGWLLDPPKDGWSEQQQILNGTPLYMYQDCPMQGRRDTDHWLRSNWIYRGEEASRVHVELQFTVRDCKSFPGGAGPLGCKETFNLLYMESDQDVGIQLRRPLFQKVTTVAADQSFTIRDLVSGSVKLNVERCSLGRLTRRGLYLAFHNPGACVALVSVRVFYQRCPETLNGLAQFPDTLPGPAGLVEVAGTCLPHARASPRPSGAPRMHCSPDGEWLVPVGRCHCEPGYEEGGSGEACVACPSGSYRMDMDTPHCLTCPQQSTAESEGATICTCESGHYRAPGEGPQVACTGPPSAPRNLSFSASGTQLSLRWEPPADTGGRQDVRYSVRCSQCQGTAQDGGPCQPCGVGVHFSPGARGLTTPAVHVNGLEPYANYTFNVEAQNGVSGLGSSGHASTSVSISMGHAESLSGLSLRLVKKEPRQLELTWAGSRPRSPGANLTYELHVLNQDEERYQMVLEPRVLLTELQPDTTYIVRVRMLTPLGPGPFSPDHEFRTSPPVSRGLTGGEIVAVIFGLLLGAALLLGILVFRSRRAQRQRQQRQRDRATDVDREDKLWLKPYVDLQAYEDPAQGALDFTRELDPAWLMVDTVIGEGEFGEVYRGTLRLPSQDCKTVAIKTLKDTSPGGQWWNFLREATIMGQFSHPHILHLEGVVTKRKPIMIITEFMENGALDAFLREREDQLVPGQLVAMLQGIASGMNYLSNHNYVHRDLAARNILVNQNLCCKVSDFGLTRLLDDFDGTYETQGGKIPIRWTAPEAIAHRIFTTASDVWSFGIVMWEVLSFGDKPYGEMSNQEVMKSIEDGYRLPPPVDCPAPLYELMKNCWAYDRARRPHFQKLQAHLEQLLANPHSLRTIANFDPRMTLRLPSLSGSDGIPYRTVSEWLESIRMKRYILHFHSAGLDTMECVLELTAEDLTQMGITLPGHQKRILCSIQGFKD
# [2] = biological target: Serine/threonine-protein kinase MARK1 (Homo sapiens) (UniProt Q9P0L2); assay: Inhibition of MARK1 (unknown origin) assessed as residual activity at 1000 nM by KINOMEscan analysis relative to control
# [3] = biological target: Ribosomal protein S6 kinase alpha-3 (Homo sapiens) (UniProt P51812); assay: Inhibition of N-terminal RSK2 kinetic domain 1 (unknown origin) assessed as residual activity at 1000 nM by KINOMEscan analysis relative to control
# [4] = biological target: Mitogen-activated protein kinase kinase kinase 11 (Homo sapiens) (UniProt Q16584); assay: Inhibition of MLK3 (unknown origin) assessed as residual activity at 1000 nM by KINOMEscan analysis relative to control
# [5] = tested on: Receptor-type tyrosine-protein kinase FLT3 (Homo sapiens), P36888 [N841I]; assay: Inhibition of FLT3 N841I mutant (unknown origin) assessed as residual activity at 1000 nM by KINOMEscan analysis relative to control
# [6] = biological target: T2, Tyrosine-protein kinase ZAP-70 (Homo sapiens) (UniProt P43403); assay: Inhibition of ZAP70 (unknown origin) assessed as residual activity at 1000 nM by KINOMEscan analysis relative to control
# T2 sequence (whole entry): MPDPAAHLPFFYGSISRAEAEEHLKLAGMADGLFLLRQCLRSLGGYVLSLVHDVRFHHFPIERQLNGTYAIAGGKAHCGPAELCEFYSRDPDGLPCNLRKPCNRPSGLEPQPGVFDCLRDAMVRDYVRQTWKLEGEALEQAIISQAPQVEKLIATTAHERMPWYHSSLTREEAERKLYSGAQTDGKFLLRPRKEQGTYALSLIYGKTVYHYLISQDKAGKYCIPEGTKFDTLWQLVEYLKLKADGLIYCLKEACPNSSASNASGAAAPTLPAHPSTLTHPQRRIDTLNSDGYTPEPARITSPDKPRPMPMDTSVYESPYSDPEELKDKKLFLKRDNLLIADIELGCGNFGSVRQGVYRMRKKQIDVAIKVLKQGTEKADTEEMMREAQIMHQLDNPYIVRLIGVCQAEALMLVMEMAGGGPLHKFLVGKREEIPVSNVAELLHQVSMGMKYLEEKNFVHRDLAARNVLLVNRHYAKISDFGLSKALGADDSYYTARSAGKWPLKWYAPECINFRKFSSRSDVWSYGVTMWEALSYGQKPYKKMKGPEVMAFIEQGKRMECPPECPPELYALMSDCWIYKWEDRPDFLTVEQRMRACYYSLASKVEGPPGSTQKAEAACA
# [7] = biological target: T3, Serine/threonine-protein kinase ICK (Homo sapiens) (UniProt Q9UPZ9); assay: Inhibition of ICK (unknown origin) assessed as residual activity at 1000 nM by KINOMEscan analysis relative to control
# T3 sequence (whole entry): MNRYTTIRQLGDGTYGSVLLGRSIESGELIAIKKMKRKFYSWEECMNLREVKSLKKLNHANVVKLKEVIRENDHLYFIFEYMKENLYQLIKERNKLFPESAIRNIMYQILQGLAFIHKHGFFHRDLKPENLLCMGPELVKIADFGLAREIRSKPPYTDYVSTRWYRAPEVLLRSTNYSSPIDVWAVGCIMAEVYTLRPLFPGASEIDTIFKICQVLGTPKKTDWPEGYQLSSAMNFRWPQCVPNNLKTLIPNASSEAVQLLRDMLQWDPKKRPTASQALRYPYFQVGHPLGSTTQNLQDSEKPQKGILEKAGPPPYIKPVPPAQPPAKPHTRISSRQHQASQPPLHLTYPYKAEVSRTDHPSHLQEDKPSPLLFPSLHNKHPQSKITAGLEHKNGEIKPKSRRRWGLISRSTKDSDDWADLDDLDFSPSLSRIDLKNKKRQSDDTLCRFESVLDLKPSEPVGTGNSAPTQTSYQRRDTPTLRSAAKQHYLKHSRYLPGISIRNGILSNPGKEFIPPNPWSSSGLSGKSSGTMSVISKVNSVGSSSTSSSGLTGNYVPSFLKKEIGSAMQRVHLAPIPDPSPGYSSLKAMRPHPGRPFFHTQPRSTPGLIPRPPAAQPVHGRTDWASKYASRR
# [8] = biological target: Ribosomal protein S6 kinase alpha-5 (Homo sapiens) (UniProt O75582); assay: Inhibition of N-terminal RPS6KA5 kinetic domain 1 (unknown origin) assessed as residual activity at 1000 nM by KINOMEscan analysis relative to control
# Sequence of Ribosomal protein S6 kinase alpha-5 (Homo sapiens) (O75582 whole entry, looked up, the tested form may be a part): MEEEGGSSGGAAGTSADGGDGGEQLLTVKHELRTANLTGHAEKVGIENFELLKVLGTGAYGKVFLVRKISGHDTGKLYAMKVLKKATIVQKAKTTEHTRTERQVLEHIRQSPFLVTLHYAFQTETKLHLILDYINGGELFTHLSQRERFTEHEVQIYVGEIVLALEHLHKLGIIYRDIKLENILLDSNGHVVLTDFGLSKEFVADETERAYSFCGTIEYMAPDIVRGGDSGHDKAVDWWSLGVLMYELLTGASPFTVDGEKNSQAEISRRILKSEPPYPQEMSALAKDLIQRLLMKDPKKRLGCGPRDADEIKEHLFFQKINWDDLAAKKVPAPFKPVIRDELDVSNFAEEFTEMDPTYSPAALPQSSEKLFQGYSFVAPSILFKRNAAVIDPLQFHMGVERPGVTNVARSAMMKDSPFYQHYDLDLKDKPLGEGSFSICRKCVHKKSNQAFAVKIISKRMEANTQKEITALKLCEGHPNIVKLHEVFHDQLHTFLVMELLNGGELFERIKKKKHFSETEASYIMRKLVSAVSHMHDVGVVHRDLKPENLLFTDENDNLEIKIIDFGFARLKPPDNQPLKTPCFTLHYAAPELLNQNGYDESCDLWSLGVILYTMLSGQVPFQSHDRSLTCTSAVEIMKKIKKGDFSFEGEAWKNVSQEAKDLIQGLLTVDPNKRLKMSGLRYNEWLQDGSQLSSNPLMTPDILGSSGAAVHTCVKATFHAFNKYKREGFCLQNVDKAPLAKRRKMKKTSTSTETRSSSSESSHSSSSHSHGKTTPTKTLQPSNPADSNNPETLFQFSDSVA
# Sequence of Serine/threonine-protein kinase MARK1 (Homo sapiens) (Q9P0L2 whole entry, looked up, the tested form may be a part): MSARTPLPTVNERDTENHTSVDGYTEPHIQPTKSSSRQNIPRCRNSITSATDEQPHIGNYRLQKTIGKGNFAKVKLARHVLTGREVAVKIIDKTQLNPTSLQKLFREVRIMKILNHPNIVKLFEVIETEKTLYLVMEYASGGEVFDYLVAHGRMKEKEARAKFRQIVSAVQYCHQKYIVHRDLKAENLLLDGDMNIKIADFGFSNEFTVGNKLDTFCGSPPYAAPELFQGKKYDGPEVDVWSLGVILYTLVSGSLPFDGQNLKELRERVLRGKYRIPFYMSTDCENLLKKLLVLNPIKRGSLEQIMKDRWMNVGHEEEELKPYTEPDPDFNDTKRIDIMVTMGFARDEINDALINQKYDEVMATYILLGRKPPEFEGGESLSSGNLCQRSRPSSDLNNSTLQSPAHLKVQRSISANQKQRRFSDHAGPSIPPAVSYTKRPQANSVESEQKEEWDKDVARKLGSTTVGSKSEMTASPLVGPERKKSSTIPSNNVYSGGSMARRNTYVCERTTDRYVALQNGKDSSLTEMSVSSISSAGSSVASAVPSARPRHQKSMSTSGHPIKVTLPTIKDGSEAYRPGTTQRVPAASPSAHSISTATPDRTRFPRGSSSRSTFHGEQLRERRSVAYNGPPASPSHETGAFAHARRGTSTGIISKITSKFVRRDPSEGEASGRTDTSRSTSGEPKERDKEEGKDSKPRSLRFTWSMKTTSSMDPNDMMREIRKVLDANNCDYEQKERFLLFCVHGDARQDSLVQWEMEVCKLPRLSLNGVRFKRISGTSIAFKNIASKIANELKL
# Sequence of Ribosomal protein S6 kinase alpha-3 (Homo sapiens) (P51812 whole entry, the tested form may be a part): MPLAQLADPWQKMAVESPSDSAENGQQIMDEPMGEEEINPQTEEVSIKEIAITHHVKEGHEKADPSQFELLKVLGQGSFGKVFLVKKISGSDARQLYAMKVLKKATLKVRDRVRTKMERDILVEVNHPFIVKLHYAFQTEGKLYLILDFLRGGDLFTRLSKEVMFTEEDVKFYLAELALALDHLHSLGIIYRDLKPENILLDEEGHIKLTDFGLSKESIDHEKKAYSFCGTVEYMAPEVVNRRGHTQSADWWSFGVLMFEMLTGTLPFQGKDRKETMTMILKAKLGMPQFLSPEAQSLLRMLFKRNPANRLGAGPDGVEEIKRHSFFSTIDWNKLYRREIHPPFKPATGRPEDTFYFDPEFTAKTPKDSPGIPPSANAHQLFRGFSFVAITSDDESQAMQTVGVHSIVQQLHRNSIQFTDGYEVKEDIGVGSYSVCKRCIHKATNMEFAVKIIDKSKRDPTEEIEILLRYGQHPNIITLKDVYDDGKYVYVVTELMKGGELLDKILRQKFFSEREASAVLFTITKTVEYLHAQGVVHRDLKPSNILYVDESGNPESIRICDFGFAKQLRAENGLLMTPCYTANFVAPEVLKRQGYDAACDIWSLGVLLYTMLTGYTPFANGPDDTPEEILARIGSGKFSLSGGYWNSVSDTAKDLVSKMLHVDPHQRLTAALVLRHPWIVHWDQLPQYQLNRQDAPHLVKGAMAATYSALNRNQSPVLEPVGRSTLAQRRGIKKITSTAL
# Sequence of Mitogen-activated protein kinase kinase kinase 11 (Homo sapiens) (Q16584 whole entry, looked up): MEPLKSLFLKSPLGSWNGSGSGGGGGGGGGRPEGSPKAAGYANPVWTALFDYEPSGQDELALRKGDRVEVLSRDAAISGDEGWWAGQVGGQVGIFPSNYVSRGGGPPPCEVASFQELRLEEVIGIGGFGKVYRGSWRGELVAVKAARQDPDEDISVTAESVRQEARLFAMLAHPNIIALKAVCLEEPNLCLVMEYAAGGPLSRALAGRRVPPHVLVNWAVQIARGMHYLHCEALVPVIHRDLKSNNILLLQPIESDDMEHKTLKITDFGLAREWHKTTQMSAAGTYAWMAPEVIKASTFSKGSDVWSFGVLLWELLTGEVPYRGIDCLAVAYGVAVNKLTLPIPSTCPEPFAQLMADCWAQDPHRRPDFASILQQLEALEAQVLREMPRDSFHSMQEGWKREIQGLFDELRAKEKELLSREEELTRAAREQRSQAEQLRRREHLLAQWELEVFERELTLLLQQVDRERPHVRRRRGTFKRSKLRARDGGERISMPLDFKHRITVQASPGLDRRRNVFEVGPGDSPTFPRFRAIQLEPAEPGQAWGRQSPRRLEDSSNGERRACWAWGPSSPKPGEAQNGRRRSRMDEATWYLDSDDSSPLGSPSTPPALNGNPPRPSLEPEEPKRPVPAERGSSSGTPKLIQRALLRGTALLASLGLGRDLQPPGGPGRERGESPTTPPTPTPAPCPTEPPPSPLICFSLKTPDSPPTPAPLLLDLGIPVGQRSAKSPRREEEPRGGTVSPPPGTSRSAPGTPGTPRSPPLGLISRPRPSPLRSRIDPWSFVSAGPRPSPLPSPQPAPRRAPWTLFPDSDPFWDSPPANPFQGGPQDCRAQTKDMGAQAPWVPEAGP
Structure (SMILES),Activity [1],Activity [2],Activity [3],Activity [4],Activity [5],Activity [6],Activity [7],Activity [8]
COc1cc2nc(C)nc(N[C@H](C)c3cccc(-c4cn[nH]c4)c3)c2cc1OC,39%,100%,60%,100%,94%,82%,78%,92%
COc1cc2ncnc(N[C@H](C)c3cccc4ccccc34)c2cc1OC,100%,73%,95%,100%,100%,97%,94%,99%
